Reference: patent US6461865B1, “Calreticulin-deficient cells” (priority 1997, dated 2002)

Columns and labels:
Assay type in all cases: cell-based, mouse
[1] = tested on: wild-type ES cells; assay: Serum-free cell attachment assay on fibronectin, wild-type ES cells; conditions: peptide 0.5-1 mg/ml, antiserum 10 μg/ml
Protocol: The adhesive capacities of the ES cell clones were assessed by quantitative cell attachment assays on fibronectin and laminin under serum-free conditions. […] ES cells lacking calreticulin also were impaired in their ability to adhere to anti-alpha5 beta1 integrin antibodies (FIG. 2a). The heterozygous clone (#34) was generally intermediate in its level of adhesion. None of the clones tested adhered to vitronectin (FIG. 2a). […] To ensure that the observed differences in cell adhesion were not due to differences in the level of expression of the relevant integrins, the cell surface levels of alpha5 beta1, alpha4, alpha6 and alphav beta3 integrins were assessed by flow cytometry. All clones tested expressed similar levels of integrin subunits (FIG. 2c).
Serum-free adhesion assays are described elsewhere^5. 0.5-1 mg/ml GRGDSP [SEQ ID No: 1] or GRGESP [SEQ. ID No: 2] peptide (Gibco/BRL), 10 μg/ml rabbit anti-fibronectin receptor (Gibco/BRL) or 10 μg/ml rat anti-alpha6 (GoH3, AMAC, Inc.) was added where indicated. For flow cytometric analysis of integrin expression, 1×10^6 cells were incubated on ice for 30 min. with primary antibody; anti-FNR, anti-VNR (Gibco/BRL), anti-alpha6 (GoH3) or anti-alpha429 in PBS/0.1% sodium azide/2.0% fetal bovine serum. […] Cells were fixed in PBS/1.0% paraformaldehyde, pelleted, resuspended in PBS and analyzed on a FACScan (Becton Dickinson Immunocytometry Systems).

[2] = tested on: calreticulin knock-out ES cells; assay: Adhesion of calreticulin knock-out ES cells to fibronectin
Protocol: FIG. 4E Adhesion assays to Fibronectin as in FIG. 6. Where indicated 100 nM LPA or 100 nM Tg and anti-FNR antiserum (10 μg/ml) were added. Open bars, parental ES cells; closed bars, knock-out ES cells. All data are means +/− SEM of at least 3 experiments. It is conceivable that a transient increase in cytosolic [Ca^2+] shortly after integrin ligand binding is an important part of normal receptor post-occupancy events (eg. increases in avidity, cytoskeletal reorganization). To examine this possibility, we tested whether stimulation of down-stream events in integrin ‘outside-in’ signaling within calreticulin-null cells could compensate for their adhesion defect. […] Although not shown in FIG. 4, the response to LPA was dose-dependent. […] Serum-free adhesion assays are described elsewhere^5. 0.5-1 mg/ml GRGDSP [SEQ ID No: 1] or GRGESP [SEQ. ID No: 2] peptide (Gibco/BRL), 10 μg/ml rabbit anti-fibronectin receptor (Gibco/BRL) or 10 μg/ml rat anti-alpha6 (GoH3, AMAC, Inc.) was added where indicated. For flow cytometric analysis of integrin expression, 1×10^6 cells were incubated on ice for 30 min. with primary antibody; anti-FNR, anti-VNR (Gibco/BRL), anti-alpha6 (GoH3) or anti-alpha429 in PBS/0.1% sodium azide/2.0% fetal bovine serum. […] Cells were fixed in PBS/1.0% paraformaldehyde, pelleted, resuspended in PBS and analyzed on a FACScan (Becton Dickinson Immunocytometry Systems).

[3] = tested on: ES cells; assay: Cytosolic calcium measurement (fura-2) in ES cells; conditions: Ca2+-free medium
Protocol: It has been reported that calreticulin can regulate inositol 1,4,5-trisphosphate (InsP3)-mediated calcium signaling in Xenopus oocytes^9. To more specifically examine the role of calreticulin in the storage and mobilization of calcium from InsP3-sensitive stores, we challenged ES cells with lysophosphatidic acid (LPA, 100 nM), which induces InsP3 release12 via heterotrimeric G-protein -mediated activation of phospholipase C. […] The magnitude of this transient was indistinguishable in parental and clone 29 cells (FIG. 4b). […] These observations imply that the stores depleted by LPA represent a subset of the thapsigargin-sensitive compartment.
To measure cytosolic free calcium, the cells were loaded with fura-2 by incubation with 0.5-10 μM of the precursor acetoxymethyl ester for 20 min. at 37° C. Fura-2 ratio fluorescence measurements were performed on a Nikon Diaphot TMD microscope (Nikon Canada) equipped with a 100 W Xenon lamp, a shutter/rotating mirror/fiber optic assembly (RatioMaster, Photon Technologies), a Fluor 40x/1.3 oil-immersion objective and a high-sensitivity photometer (D-104, PTI) interfaced to a 386 computer (NEC) via a 12 bit A/D board (Labmaster, National Instruments). […] The intracellular concentration of fura-2 was measured at the isosbestic wavelength (360 nm) and compared to standards. […]

Question: For GRGDSP [GRGDSP peptides, (Gibco/BRL)], which “Wild-type ES cell adhesion to fibronectin” value [1] is on record?
Answer: Its value is “inhibited adhesion to fibronectin”.

Question: For lysophosphatidic acid [LPA], which “Adhesion of calreticulin knock-out cells to fibronectin” value ([2]; 100 nM) is on record?
Answer: The value was “significantly restored”.

Question: And the “Dose dependence of the adhesion response of calreticulin knock-out cells” value ([2]; data not shown in FIG. 4)?
Answer: The value was “dose-dependent”.

Question: And the “Cytosolic [Ca2+]i transient” value ([3]; 100 nM, parental and clone 29 cells)?
Answer: The value was “induced a rapid [Ca2+]i transient”.

Question: With `C/C=C(/C)C(=O)O[C@H]1C(C)=C2[C@H]([C@@H]1OC(=O)CCCCCCC)[C@@](C)(OC(C)=O)C[C@H](OC(=O)CCC)[C@@]1(O)[C@H]2OC(=O)[C@@]1(C)O` [thapsigargin] as the compound, how does the “Net Ca2+ release after prior LPA” value ([3]; added after LPA) read?
Answer: The value was “induced a second, smaller burst of net Ca^2+ release”.
